# Source: US20170020890A1, “PHARMACEUTICAL COMPOSITION COMPRISING FATTY ACID DERIVATIVE” (SUCAMPO AG, priority 2015, published 2017)
# Peptide text beside a SMILES is read from it.
# Assay: Solubility of sweetening agents in medium-chain triglycerides (MCT)
# Conditions: not given
# Description: 18 mg of neotame, 20 mg of saccharin, 1 mg of sodium saccharin or 5 mg of thaumatin was mixed with medium-chain triglycerides (MCT; USP/NF) to give the total weight of 180 g, 20 g, 100 g or 500 g respectively.
# Solubility and sensory tests of sweetening agents were conducted. Specifically, 7.2 mg of neotame, 20 mg of saccharin or 5 mg of sucralose was mixed with medium-chain triglycerides (MCT; USP/NF) to give the total weight of 40 g, 20 g or 100 g, respectively. Additionally, 1 mg of a sweetening agent was mixed with medium-chain triglycerides (MCT; USP/NF) to give the total weight of its mixtures of 100 g. The sweetening agent was sodium saccharin, thaumatin, aspartame, acesulfame potassium, sucrose, glucose, fructose, lactose, D-sorbitol, or xylitol.
Solubility in MCT,"Solubility in MCT, in words",Solubility to MCT,Compound
<0.001 w/w %,–,–,"OC[C@@H](O)[C@H](O)[C@@H](O)CO [Xylitol, xylitol]"
<0.001 w/w %,–,–,"CC1=CC(=O)NS(=O)(=O)O1 [Acesulfame potassium, acesulfame potassium]"
0.018 w/w %,solved in MCT,0.01%,COC(=O)[C@H](Cc1ccccc1)NC(=O)[C@H](CC(=O)O)NCCC(C)(C)C [Neotame]
0.005 w/w %,solved in MCT,–,"OC[C@H]1O[C@H](O[C@]2(CCl)O[C@H](CCl)[C@@H](O)[C@@H]2O)[C@H](O)[C@@H](O)[C@H]1Cl [Sucralose, 1,6-Dichloro-1,6-dideoxy-β-D-fructofuranosyl-4-chloro-4-deoxy-α-D-galactopyranoside]"
0.1 w/w %,solved in MCT,0.1%,"O=C1NS(=O)(=O)c2ccccc21 [Saccharin, 2H-1λ^6,2-benzothiazol-1,1,3-trione]"
<0.001 w/w %,–,–,"COC(=O)[C@H](Cc1ccccc1)NC(=O)[C@@H](N)CC(=O)O [Aspartame, aspartame] (H-Asp-Phe-OMe)"
<0.001 w/w %,–,–,"OC[C@H]1O[C@@](CO)(O[C@H]2O[C@H](CO)[C@@H](O)[C@H](O)[C@H]2O)[C@@H](O)[C@@H]1O [Sucrose, sucrose]"
<0.001 w/w %,–,–,"OC[C@@H](O)[C@@H](O)[C@H](O)[C@@H](O)CO [D-Sorbitol, D-sorbitol]"

Compound,Solubility in MCT,"Solubility in MCT, in words",Solubility to MCT
thaumatin,<0.001 w/w %,did not solve in MCT,<0.001%

# Same assay, conditions: Example 1; medium-chain triglycerides (USP/NF)
row,Solubility to MCT,Compound
1,<0.001%,"O=C1NS(=O)(=O)c2ccccc21.[Na] [Sodium saccharin, sodium saccharin]"

# Same assay, conditions: Example 5; medium-chain triglycerides (USP/NF)
row,Compound,Solubility in MCT
1,"O=C(CO)[C@@H](O)[C@H](O)[C@H](O)CO [Fructose, fructose]",<0.001 w/w %
2,"O=C1NS(=O)(=O)c2ccccc21.[Na] [Sodium saccharin, sodium saccharin]",<0.001 w/w %

# Same assay, conditions: Examples 1 and 5
row,"Solubility in MCT, in words",Compound
1,did not solve in MCT,"O=C1NS(=O)(=O)c2ccccc21.[Na] [Sodium saccharin, sodium saccharin]"
